# Measurements from US7884105B2, “Squaric acid derivatives as inhibitors of histone deacetylase” (Janssen Pharmaceutica, N.V., priority 2005, dated 2011).
# Test system: not listed separately
# Assay: Kinetic solubility in aqueous media (nephelometry)
# Format: physicochemical
# Details: aqueous buffer, kinetic from dmso stock; phosphate citrate buffer pH 7.4, dilution of 5 mM DMSO stock, turbidity by nephelometer; read-out: Solubility C.2. score
# Experimental: The solubility of a compound measures the ability of a compound to stay in solution. DMSO-stock solutions are diluted with a single aqueous buffer solvent in 3 consecutive steps. For every dilution turbidity is measured with a nephelometer. (see example C.2).
# In the first dilution step, 10 μl of a concentrated stock-solution of the active compound, solubilized in DMSO (5 mM), was added to 100 μl phosphate citrate buffer pH 7.4 and mixed. In the second dilution step, an aliquot (20 μl) of the first dilution step was further dispensed in 100 μl phosphate citrate buffer pH 7.4 and mixed. Finally, in the third dilution step, a sample (20 μl) of the second dilution step was further diluted in 100 μl phosphate citrate buffer pH 7.4 and mixed. All dilutions were performed in 96-well plates. Immediately after the last dilution step the turbidity of the three consecutive dilution steps were measured with a nephelometer. Dilution was done in triplicate for each compound to exclude occasional errors. Based on the turbidity measurements a ranking is performed into 3 classes. Compounds with high solubility obtained a score of 3 and for this compounds the first dilution is clear. Compounds with medium solubility obtained a score of 2. For these compounds the first dilution is unclear and the second dilution is clear. […]
row,solubility [µM],SMILES
1,> 454,O=C(NO)c1cnc(N2CCN(c3c(NCc4ccco4)c(=O)c3=O)CC2)nc1 [Compound 7]
2,> 454,O=C(NO)c1cnc(N2CCN(c3c(NCc4cccc(C(F)(F)F)c4)c(=O)c3=O)CC2)nc1 [Compound 12]

# Target: histone deacetylase (HeLa nuclear extracts)
# Assay: In vitro assay for inhibition of histone deacetylase (HDAC Fluorescent Activity Assay, Fluor de Lys)
# Format: biochemical
# Set-up: key: pIC50 = negative log of IC50
# Details: HeLa nuclear extracts 60 μg/ml, 75 μM Fluor de Lys substrate, pH 7.4, 30 min
# Description: The in vitro assay for inhibition of histone deacetylase (see example C.1) measures the inhibition of HDAC enzymatic activity obtained with the compounds of formula (I).
# The HDAC Fluorescent Activity Assay/Drug Discovery Kit of Biomol (cat. No: AK-500-0001) was used. The HDAC Fluorescent Activity Assay is based on the Fluor de Lys (Fluorogenic Histone deAcetylase Lysyl) substrate and developer combination. The Fluor de Lys substrate, comprises an acetylated lysine side chain. Deacetylation of the substrate sensitizes the substrate so that, in the second step, treatment with the Fluor de Lys developer produces a fluorophore.
# HeLa nuclear extracts (supplier: Biomol) were incubated at 60 μg/ml with 75 μM of substrate. The Fluor de Lys substrate was added in a buffer containing 25 mM Tris, 137 mM NaCl, 2.7 mM KCl and 1 mM MgCl2.6H2O at pH 7.4. After 30 min, 1 volume of the developer was added. The fluorophore was excited with 355 nm light and the emitted light (450 nm) was be detected on a fluorometric plate reader.
# For each experiment, controls (containing HeLa nuclear extract and buffer), a blank incubation (containing buffer but no HeLa nuclear extract) and samples (containing compound dissolved in DMSO and further diluted in buffer and HeLa nuclear extract) were run in parallel. In first instance, compounds were tested at a concentration of 10^−5M. […] All sample were tested 4 times. In each test the blank value was subtracted from both the control and the sample values. The control sample represented 100% of substrate deactylation. For each sample the fluorescence was expressed as a percentage of the mean value of the controls. When appropriate IC50-values (concentration of the drug, needed to reduce the amount of metabolites to 50% of the control) were computed using probit analysis for graded data. Herein the effects of test compounds are expressed as pIC50 (the negative log value of the IC50-value) (see Table F-2).
row,SMILES,Enzymatic activity pIC50 C.1.
1,O=C(NO)c1cnc(N2CCN(c3c(Nc4cccc(-c5ccccc5)c4)c(=O)c3=O)CC2)nc1 [Compound 1],7.7
2,O=C(NO)c1cnc(N2CCN(c3c(NCC4CCN(Cc5ccccc5)C4)c(=O)c3=O)CC2)nc1 (stereo not drawn) [Compound 2],6.9
3,CCCCCNc1c(N2CCN(c3ncc(C(=O)NO)cn3)CC2)c(=O)c1=O [Compound 3],7.6
4,O=C(NO)c1cnc(N2CCN(c3c(NC4CCCc5ccccc54)c(=O)c3=O)CC2)nc1 (stereo not drawn) [Compound 4],7.2
5,O=C(NO)c1cnc(N2CCN(c3c(NCCOc4cccc(Cl)c4)c(=O)c3=O)CC2)nc1 [Compound 5],7.4
6,CCN(CC)CCCNc1c(N2CCN(c3ncc(C(=O)NO)cn3)CC2)c(=O)c1=O [Compound 6],7.2
7,O=C(NO)c1cnc(N2CCN(c3c(NCc4ccco4)c(=O)c3=O)CC2)nc1 [Compound 7],7.2
8,O=C(NO)c1cnc(N2CCN(c3c(NCC4(c5ccc(Cl)cc5)CC4)c(=O)c3=O)CC2)nc1 [Compound 8],7.2

# Results, then the compound that gave them:
row,Enzymatic activity pIC50 C.1.,SMILES
1,7.0,O=C(NO)c1cnc(N2CCN(c3c(NCc4cccnc4)c(=O)c3=O)CC2)nc1 [Compound 9]
2,7.1,O=C(NO)c1cnc(N2CCN(c3c(NCCc4ccccc4)c(=O)c3=O)CC2)nc1 [Compound 10]
3,7.0,O=C(NO)c1cnc(N2CCN(c3c(NCCc4ccccn4)c(=O)c3=O)CC2)nc1 [Compound 11]
4,7.2,O=C(NO)c1cnc(N2CCN(c3c(NCc4cccc(C(F)(F)F)c4)c(=O)c3=O)CC2)nc1 [Compound 12]
5,7.4,COc1cc(CNc2c(N3CCN(c4ncc(C(=O)NO)cn4)CC3)c(=O)c2=O)cc(OC)c1OC [Compound 13]
6,6.9,O=C(NO)c1cnc(N2CCN(c3c(NCCNc4ccccc4)c(=O)c3=O)CC2)nc1 [Compound 14]
7,6.8,O=C(NO)c1cnc(N2CCN(c3c(NCCCN4CCCC4=O)c(=O)c3=O)CC2)nc1 [Compound 15]
8,7.3,O=C(NO)c1cnc(N2CCN(c3c(NCCOc4ccccc4)c(=O)c3=O)CC2)nc1 [Compound 16]
